Measurements taken from patent publication US11401255B2, “Small molecule activators of Parkin enzyme function” (Mayo Foundation for Medical Education and Research, priority 2016, dated 2022).
Values joined by “and” are separate entries in the source; they are usually repeats but may differ in a detail not shown here. Equal entries are not always repeated. Where two headings read alike, the source gives them in different places.

Key:
HeLa EGFP-Parkin cells = experiment: Co-recruitment of autophagy receptors to mitochondria (immunofluorescence); type: cell-based, human
Experimental: Cells were grown on poly-D-lysine coated glass coverslips. After treatments, cells were fixed in 4% paraformaldehyde and permeabilized using 1% Triton X-100, for each 10 min. Cells were blocked in 10% goat serum. Primary and secondary antibodies were diluted in 1% BSA/PBS and each incubated for 1 h at RT. Primary antibodies used: DNA (mouse, 1:250, Progen, AC-30-10), NBR1 (mouse, 1:100, Abnova H00004077-M01), NDP52 (rabbit, 1:400, Proteintech, 12229-1-AP), OPTN (mouse, 1:200, Santa Cruz, sc-166576), p62 (mouse, 1:400, BD Biosciences, 610832), pSer65-Ub (rabbit, 1:500, in-house (Fiesel et al., EMBO Reports (2015) 16:1114-30; Fiesel et al., (2015) Autophagy 11:2125-2126)), TAX1BP1 (rabbit, 1:200, Cell Signaling, #5105), TOM20 (mouse, 1:100, Santa Cruz, sc-17764), TOM20 (rabbit, 1:2000, Proteintech, 11802-1-AP). Secondary antibodies conjugated to AlexaFluor-568 or-647 (Invitrogen) were diluted 1:1000. Hoechst 33342 (Invitrogen) was diluted 1:5000 to counterstain the nuclei.
To validate the activation of Parkin further downstream in the pathway, co-recruitment of endogenous autophagy receptors to mitochondria in HeLa EGFP-Parkin cells was analyzed. These dual adaptors recognize pSer65-Ub chains on damaged mitochondria and facilitate their engulfment by autophagosomal membrane via their interaction with LC3 proteins (Lazarou et al., Nature (2015) 524:309-14; Heo et al., Mol. Cell (2015) 60:7-20).

CYP 2C9 = CYP 2C9 (Homo sapiens (Human), UniProt P11712); experiment: P450-Glo CYP450 inhibition, CYP 2C9; type: in vitro ADME; conditions: CYP 2C9, 10 μM; for inhibition at 10 µM: human, P450-Glo Assay System (Promega), CYP 2C9 membranes
CYP 2C9, sequence (P11712 whole entry): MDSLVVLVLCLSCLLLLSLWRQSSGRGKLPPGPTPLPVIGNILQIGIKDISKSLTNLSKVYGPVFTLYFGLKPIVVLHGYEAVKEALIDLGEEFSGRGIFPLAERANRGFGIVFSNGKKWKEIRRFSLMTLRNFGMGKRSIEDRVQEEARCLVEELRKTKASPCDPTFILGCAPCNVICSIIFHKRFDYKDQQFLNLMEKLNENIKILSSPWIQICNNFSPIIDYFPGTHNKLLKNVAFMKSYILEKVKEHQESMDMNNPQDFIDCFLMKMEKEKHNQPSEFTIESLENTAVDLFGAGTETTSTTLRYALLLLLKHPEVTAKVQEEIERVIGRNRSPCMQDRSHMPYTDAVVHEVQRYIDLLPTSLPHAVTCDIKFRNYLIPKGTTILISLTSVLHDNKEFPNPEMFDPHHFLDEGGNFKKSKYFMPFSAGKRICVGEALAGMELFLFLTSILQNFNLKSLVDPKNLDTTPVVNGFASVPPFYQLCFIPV
Experimental: (§1) CYP450 inhibition profiling provides valuable information regarding any possible drug-drug interactions for a test compound.
(§2) All experiments were performed using P450-Glo™ Assay Systems (Promega) in accordance with the manufacturer's protocols. The P450-Glo™ Assays provide a luminescent readout-based method for measuring cytochrome P450 activity. A conventional cytochrome P450 reaction was performed by incubating the cytochrome P450 and a luminogenic cytochrome P450 substrate. The substrates in the P450-Glo™ assays are derivatives of beetle luciferin. The derivatives themselves are not substrates for luciferase but are converted by cytochrome P450s to luciferin, which in turn reacts with luciferase to produce light. The amount of light produced was directly proportional to cytochrome P450 activity. All test points were performed in quadruplicates. Control membranes (without CYPs) represented the Negative control (baseline).
(§3) The following reference compounds were used to assess CYP inhibition: […]

CYP 2D6 = CYP 2D6 (Homo sapiens (Human), UniProt P10635); experiment: in vitro; conditions: Inhibition
CYP 2D6, sequence (P10635 whole entry): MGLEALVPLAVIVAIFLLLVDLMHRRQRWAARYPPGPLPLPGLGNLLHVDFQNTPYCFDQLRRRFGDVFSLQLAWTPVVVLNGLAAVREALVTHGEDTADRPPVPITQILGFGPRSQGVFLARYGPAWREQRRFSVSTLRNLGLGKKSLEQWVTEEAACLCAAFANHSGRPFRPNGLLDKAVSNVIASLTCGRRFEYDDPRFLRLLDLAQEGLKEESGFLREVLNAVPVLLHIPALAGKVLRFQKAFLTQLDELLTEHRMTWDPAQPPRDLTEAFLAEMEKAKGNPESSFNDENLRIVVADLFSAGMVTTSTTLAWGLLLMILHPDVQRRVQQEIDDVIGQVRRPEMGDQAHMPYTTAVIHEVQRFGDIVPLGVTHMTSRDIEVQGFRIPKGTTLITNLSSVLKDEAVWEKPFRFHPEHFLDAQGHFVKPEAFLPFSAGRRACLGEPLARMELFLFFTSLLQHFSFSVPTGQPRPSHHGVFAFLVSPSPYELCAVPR
Experimental: as §1, §2, §3

[1] = Caco-2 A-B permeability assay; type: in vitro ADME; conditions: human
Experimental: (§4) Caco-2 cells were cultivated in 75 cm^2 flasks to 80-90% of confluence according to the ATCC and Millipore recommendations (Millipore protocol note PC1060EN00P) in a humidified atmosphere at 37° C. and 5% CO2. Cells were detached with Trypsin/EDTA solution and re-suspended in the cell culture medium to a final concentration of 2×10^5 cells/mL. 500 μL of the cell suspension was added to each well of an HTS 24-multiwell insert system and 35 mL of prewarmed complete medium was added to the feeder tray. Caco-2 cells were incubated in the multiwell insert system for 10 days before the transport experiments. The medium in the filter plate and feeder tray was changed every other day. After 10 days of cell growth, the integrity of the monolayer was verified by measuring the transepithelial electrical resistance (TEER) for every well using the Millicell-ERS system ohm meter. […] The 24-well insert plate was removed from its feeder plate and placed in a new sterile 24-well transport analysis plate. The medium was aspirated and inserts washed with PBS.
(§5) To determine the rate of drug transport in apical (A) to basolateral (B) direction, 300 μL of the test compound solution in buffer (HBSS, 5.6 mM glucose, 10 mM HEPES, pH=7.4) was added into the filter wells and 1000 μL of the same buffer was added to wells in the transport analysis plate. The plates were incubated for 90 min. at 37° C. with shaking at 50 rpm. 75 μL aliquots were taken from the apical and basolateral compartment for LC-MS/MS analysis. All samples for LC-MS/MS analysis were extracted by acetonitrile (×2 volume) followed by protein sedimentation by centrifuging at 10000 rpm for 10 minutes. Supernatants were analyzed using the HPLC system coupled with a tandem mass spectrometer.
(§6) The apparent permeability (Papp) was calculated for the Caco-2 permeability assay using the following equation: Papp=(VA/((Area)×(Time))×([drug]acc/[drug]initial,d), where: […]

Caco-2 cells = experiment: Caco-2 A-B permeability assay; type: in vitro ADME; conditions: A-B, 90 min, pH=7.4
Experimental: as §4, §5, §6

TA 1535 = test system: TA 1535
Excerpt: The test used amino acid-dependent strains of Salmonella typhimurium and Escherichia coli to detect point mutations which involved substitution, addition or deletion of one or a few DNA base pairs. Point mutations were introduced in the histidine (Salmonella typhimurium) or the tryptophan (Escherichia coli) operon, making the tester strains incapable of producing these amino acids. The test detected mutations that revert the mutations present in the bacteria, restoring the functional capability to synthesize histidine or tryptophan. The revertant bacteria were detected by the ability to grow in the absence of the amino acid required by the parent test strain. A mutagenic potential of a tested compound was assessed by exposing these bacterial strains to different concentrations of the compounds and estimating number of revertant colonies grown in the absence (trace quantities) of the amino acid.
DMSO was used as the negative control.
For each experiment, tester strain cultures were grown overnight in Oxoid nutrient broth #2 at 37° C. with shaking at 235 rpm to a density of 1-2×10^9 colony forming units/mL (OD540˜2).
The tester strain (10 μL of night culture) was mixed with the test agent (10 µL of the DMSO stock) and GM liquid medium (30 μL). The obtained mixture was incubated at room temperature for 5 min in a sterile 1.5 mL tube. Then, to the tube was added 200 μL of molten top agar stored at 44° C. to prevent solidifying. After mixing with a pipette, the mixture was poured onto the surface of a GM agar plate (2.0 mL of GM agar per plate). After solidifying the top agar, the plate was inverted and incubated at 37° C. for 48 hours. Then, results were expressed as number of revertant colonies per plate.

[2] = Caco-2, pH 7.4, A-B, read-out: Permeability (individual replicates 1, 2)
[3] = Caco-2, pH 7.4, A-B, read-out: Permeability Mean
[4] = read-out: Inhibition, % (individual replicates)

SMILES | co-localization of OPTN, NBR1, NDP52, p62 and TAX1BP1 with Parkin on damaged mitochondria (HeLa EGFP-Parkin cells) | Inhibition, % (individual replicates) (CYP 2C9) | inhibition at 10 µM (CYP 2C9; read-out: Inhibition, % Mean) [%] | inhibition at 10 µM (CYP 2D6; % (individual replicates)) [%] | inhibition at 10 µM (CYP 2D6; % Mean) [%] | Papp at 90 min [1, 2] [×10⁻⁶ cm/s] | Papp at 90 min [1, 3] [×10⁻⁶ cm/s] | Permeability (individual replicates 1, 2) (Caco-2 cells) | Fold increase (over baseline) (TA 1535; TA 1535, 50 μM) | Mean ± SD (TA 1535; TA 1535, 50 μM) | Fold increase (over baseline) (TA 1535; TA 1535, 100 μM) | Mean ± SD (TA 1535; TA 1535, 100 μM) | Fold increase (over baseline) (TA 1535; TA 1535, 200 μM) | Mean ± SD (TA 1535; TA 1535, 200 μM) | inhibition at 10 µM (CYP 2C9; [4]) [%] | mutagenic activity (TA 1535; TA 1535, 200 μM) | Papp at 90 min ([1]; Caco-2, A-B, pH=7.4, read-out: Permeability (individual replicates 1, 2)) [×10⁻⁶ cm/s]
O=C(Cn1cnc2c1CCCC2)Nc1ccc(-c2ccccc2)cc1 [Compound 1] | increased co-localization | 40.6% and 11.1% and 15.7% and 28.5% | 24 | 18.5 | 17 | 8.3 | 10.2 | 12.1 10^−6 cm/s | 0.23 | 1 ± 0 revertant colonies per plate | 0 | 0 ± 0 revertant colonies per plate | 0 | 0 ± 0 revertant colonies per plate | – | – | –
CC(C)c1nccn1CC(=O)Nc1ccc(-c2ccccc2)cc1 [Compound 2] | increased co-localization | 30.3% and 25.4% and 21.4% | 28.4 | – | 17.3 | 17.9 | 18.2 | 18.5 10^−6 cm/s | 0 | 0 ± 0 revertant colonies per plate | 0.68 | 3 ± 0 revertant colonies per plate | 0.23 | 1 ± 0 revertant colonies per plate | 36.6 | – | –
CC(C)(C)Sc1ccc(NC(=O)Cn2ccnc2)cc1 [Compound 3] | increased co-localization | 98.8% and 98.0% and 97.4% | 97.6 | 98.9 | 99.7 | 39.5 | 40.6 | 41.7 10^−6 cm/s | 0.34 | 1.5 ± 0.7 revertant colonies per plate | 0 | 0 ± 0 revertant colonies per plate | >34 | >150 revertant colonies per plate | 96.2 | mutagenic activity | –
O=C(Cn1ccnc1-c1ccccn1)Nc1ccc(-c2ccccc2)cc1 [Compound 4] | increased co-localization | 27.3% and 11.9% and 4.6% and −11.1% | 8.2 | – | 18.4 | 14.6 | 15.3 | – | 0.23 | 1 ± 0 revertant colonies per plate | 0.34 | 1.5 ± 0.7 revertant colonies per plate | 0 | 0 ± 0 revertant colonies per plate | – | – | 15.9
Cc1nc2c(c(N3CCCN(Cc4ccccc4)CC3)n1)CCCC2 [Compound 31] | increased co-localization | 50.4% and −18.3% and 11.9% and 13.7% | 14.5 | – | 60.6 | 52.8 | 49 | 45.2 10^−6 cm/s | 0.57 | 2.5 ± 2.12 revertant colonies per plate | 0.23 | 1 ± 0 revertant colonies per plate | 0.57 | 2.5 ± 0.7 revertant colonies per plate | – | – | –
